We go through 3 molecules from patent publication US20220079194A1, “EXTRUDATE FOOD COMPOSITIONS COMPRISING CULTIVATED ANIMAL CELLS AND METHODS OF PRODUCTION THEREOF” (GOOD Meat, Inc., priority 2020, published 2022).

The subject of one data set is C1F chicken cells. Nature of the data set: Alternative sugars as carbon source for C1F suspension cultures. The following applies: for viable cell density at peak: 3 g/L sugar from day 0, batch, day 3, 1.25% FBS. It is filed as cell-based. As to the method:
We evaluated the impact of alternative sugars (mannose, fructose and galactose) on the growth and metabolism of an in-house C1F chicken cells grown in suspension cultures containing 1.25% FBS. Specific net growth rate (uN) and Specific glucose consumption rate (qGluc) or specific lactate production rate (qLac) were calculated according to equation 1 or 2 as disclosed in Example 12.
Suspension cultures as described herein were cultivated using 3 g/L of the respective sugars were added from day 0 and cultured in a batch mode up to day 3. On day 3 after sampling, an additional 3 g/L of each sugar was added to the respective flasks. By day 3, at the peak cell density, flasks that used glucose as carbon source had the highest viable cell density (˜2.805×10^6 cells/mL), followed by flasks with mannose (˜2.40×10^6 cells/mL), then fructose (1.935×10^6 cells/mL) and lastly galactose (0.915×10^6 cells/mL).
Since we observed that the C1F cells could utilize fructose as a carbon source, we evaluated the effect of different starting concentration of fructose. In one experiment, 6 g/L of fructose was added to one set of duplicate flasks from day 0, and 3 g/L of fructose added each to another set of duplicate flasks from day 0. In the flasks starting with 3 g/L of fructose, an additional 3 g/L of fructose was added on day 1 of one of the duplicates and day 2 of the other duplicate.
We next evaluated the effect of combining glucose, mannose and fructose on growth and lactate production. Using a design-of-experiment (DOE) approach, 17 batch shake flask runs were carried out evaluating varying combinations of concentrations of glucose, mannose and fructose as energy sources for suspension chicken C1F cells. The experimental design used included 3 factors (glucose, mannose and fructose) and 4 levels (0, 0.5, 1.5 and 3.0 g/L). By day 3, cells with the base carbon sources 3.0 glucose/0.5 fructose/0.5 mannose had the highest viable cell density (VCD) of 3.8×10^6 cell/mL, followed by 3.0 glucose/0.0 fructose/3.0 mannose and 3.0 glucose/3.0 fructose/3.0 mannose. […]

Data set [1] relates to C1F cells. Nature of the data set: Sodium oxamate treatment of C1F suspension culture (lactate, glucose, growth). It is filed as cell-based, chicken. The protocol:
[…] cells were cultivated in suspension culture supplemented with 1.25% bovine serum. Different concentrations of sodium oxamate were tested: 1, 3, 5, 10, 30, 60, 100, and 200 mM, and production of lactate, glucose consumption, cell growth rates and cell density were measured. The specific rates were calculated using daily viable cell concentration and metabolite concentrations for the duration of the cell culture. Specific net growth rates (UN) were calculated as a change in VCD over a time interval t1 to t2 using equation (1): Specific glucose consumption rate (qGluc) or specific lactate production rate (qLac) were determined using equation (2), where P is glucose or lactate concentration: Viable cell density (VCD) and viability were determined by the trypan blue exclusion method using the Vi-cellTM (Beckman Coulter) from 1 mL daily samples taken from shake flask cell culture. Gas and pH values including metabolite (glucose, lactate glutamine, glutamate, ammonium) concentrations were measured using the Bioprofile Flex analyzer (Nova Biomedical). Osmolality was measured using the OsmoPro Multi-Sample Micro-Osmometer (Advanced Instruments) which employs the freezing point technology. To further examine if the effects of oxamate remained similar in cell culture with metabolic by-products already present, we passaged cells treated with 30 mM oxamate using a 1:3 (v/v) split with fresh media (1⁄3 of the volume of spent media and 2⁄3 of fresh media). Having been used in culture for several days, carried over media invariably contains residual amounts (carryover) of metabolites resultant from cell consumption.

Data set [2] concerns C1F cells. The data set is described as above. It is filed as cell-based, chicken. The following applies: 10, 15, 20 and 30 mM, 3-day batch cell culture.

As to `O=C[C@H](O)[C@@H](O)[C@@H](O)[C@H](O)CO` [galactose], the “viable cell density at peak” value in the data set on C1F chicken cells is recorded as 0.915×10^6 cells/mL.

Turning to `NC(=O)C(=O)[O-].[Na+]` [oxamate, sodium oxamate], the “reduction in lactate production” value in the data set with C1F cells [1] (10 mM, day 2, C1F-SCM batch shake flasks, vs control, p<0.05) came out at 28%. In the data set on C1F cells [1] (30 mM), the “cell viability and osmolality of the media” value was “not compromised”; the “specific glucose consumption (qGluc)” value is “decreased”. The “increase in maximum viable cell density” value in the data set on C1F cells [1] (30 mM vs control) is about 44%. Also, the ammonium accumulation entry with C1F cells [1] (30 mM, between days 3 and 5, relative to non-treated control) was “spiked out”. Moreover, the “reduction in cumulative lactate production” value in the data set with C1F cells [1] (30 mM, by day 5, vs control group) is about 23%. In addition, in the data set on C1F cells [1] (30 mM, day 5, passaged 1:3 with spent media carryover), the “peak viable cell density” value was 2.79×10^6 cells/mL. For the same molecule, the lactate production entry in the data set on C1F cells [1] (30, 60, 100 and 200 mM, 3-day batch culture) was “concentration-dependent decrease”. The “lactate production vs control” value with C1F cells [1] (other concentrations tested (1, 3, 5 mM), day 2, C1F-SCM batch) was “appreciable decrease in lactate production”. For the same molecule, the “decrease in lactate production” value in the data set on C1F cells [2] is reported as “about 52%”.

Take `O=C(CO)[C@@H](O)[C@H](O)[C@H](O)CO` [fructose]: in the data set with C1F chicken cells, the “viable cell density at peak” value was 1.935×10^6 cells/mL. Besides, the “lactate accumulation, higher by day 3” value with C1F chicken cells (6 g/L from day 0 vs 3 g/L from day 0 plus 3 g/L later) is reported as 36%.
